Results from patent US20020065219A1, “Water soluble thiazolyl peptide derivatives” (priority 2000, published 2002).
Converted amounts (≈) assume the structure as drawn. Like-named read-outs stand apart in the source and are kept apart here.

How the values were obtained:
Assay in all cases: MIC, broth micro dilution assay (NCCLS)
Type in all cases: cell-based
[1] = test system: Enterococcus faecalis A20688
[2] = test system: Staphylococcus aureus A15090
[3] = test system: Streptococcus pneumoniae A28272
[4] = Mueller-Hinton medium, 35° C., 18 hours
[5] = 50% Mueller-Hinton medium and 50% Todd Hewitt medium, 35° C., 18 hours

| SMILES | MIC (μg/mL) against Enterococcus faecalis A20688 [1, 4] | MIC (μg/mL) against Staphylococcus aureus A15090 [2, 4] [µg/mL] | MIC (μg/mL) against Streptococcus pneumoniae A28272 [3, 5] [µg/mL] | MIC (μg/mL) against Enterococcus faecalis A20688 [1] [µg/mL] | MIC (μg/mL) against Staphylococcus aureus A15090 [2] [µg/mL] | MIC (μg/mL) against Streptococcus pneumoniae A28272 [3] [µg/mL] | other results |
| --- | --- | --- | --- | --- | --- | --- | --- |
| CCOC(=O)CN1CCN(CC(NC(=O)c2csc(-c3nc4c(cc3O)-c3nc(cs3)C(=O)NC(C(C)O)C(=O)N/C(=C(\C)OC)c3nc(cs3)C(=O)NC3c5nc(cs5)C(=O)NC(COC(=O)c5c6c7c(cccc7n5O)COC(=O)C(O[C@H]5C[C@](C)(O)[C@H](N(C)C)[C@H](C)O5)C3OC6)c3nc-4cs3)n2)C(N)=O)CC1 (stereo partly drawn) [Example 36] | 0.25 µg/mL (≈ 0.155 µM) | 0.06 (≈ 0.0373 µM) | 0.007 (≈ 0.00435 µM) | – | – | – | – |
| COCC(Cn1ccnc1)SCC(NC(=O)c1csc(-c2nc3c(cc2O)-c2nc(cs2)C(=O)NC(C(C)O)C(=O)NC(=C(C)OC)c2nc(cs2)C(=O)NC2c4nc(cs4)C(=O)NC(COC(=O)c4c5c6c(cccc6n4O)COC(=O)C(OC4CC(C)(O)C(N(C)C)C(C)O4)C2OC5)c2nc-3cs2)n1)C(N)=O (stereo not drawn) [Example 80] | 0.125 µg/mL (≈ 0.0776 µM) | 0.25 (≈ 0.155 µM) | 0.03 (≈ 0.0186 µM) | – | – | – | – |
| COC(C)=C1NC(=O)C(C(C)O)NC(=O)c2csc(n2)-c2cc(O)c(-c3nc(C(=O)NC(CNC(CO)Cc4c[nH]cn4)C(N)=O)cs3)nc2-c2csc(n2)C2COC(=O)c3c4c5c(cccc5n3O)COC(=O)C(OC3CC(C)(O)C(N(C)C)C(C)O3)C(OC4)C(NC(=O)c3csc1n3)c1nc(cs1)C(=O)N2 (stereo not drawn) [Example 67] | 8.0 µg/mL (≈ 5.07 µM) | 2.0 (≈ 1.27 µM) | 1.0 (≈ 0.633 µM) | – | – | – | – |
| CO/C(C)=C1/NC(=O)C(C(C)O)NC(=O)c2csc(n2)-c2cc(O)c(-c3nc(C(=O)NC(CN(C)Cc4ccccc4O[C@@H]4O[C@H](CO)[C@@H](O)[C@H](O)[C@H]4O)C(N)=O)cs3)nc2-c2csc(n2)C2COC(=O)c3c4c5c(cccc5n3O)COC(=O)C(O[C@H]3C[C@](C)(O)[C@H](N(C)C)[C@H](C)O3)C(OC4)C(NC(=O)c3csc1n3)c1nc(cs1)C(=O)N2 (stereo partly drawn) [Example 29] | 0.25 µg/mL (≈ 0.144 µM) | 0.06 (≈ 0.0345 µM) | 0.015 (≈ 0.00864 µM) | – | – | – | – |
| COC(C)=C1NC(=O)C(C(C)O)NC(=O)c2csc(n2)-c2cc(O)c(-c3nc(C(=O)NC(CN4CCCC4C(C)O)C(N)=O)cs3)nc2-c2csc(n2)C2COC(=O)c3c4c5c(cccc5n3O)COC(=O)C(OC3CC(C)(O)C(N(C)C)C(C)O3)C(OC4)C(NC(=O)c3csc1n3)c1nc(cs1)C(=O)N2 (stereo not drawn) [Example 88] | 0.06 µg/mL (≈ 0.0386 µM) | 0.007 (≈ 0.00451 µM) | 0.03 (≈ 0.0193 µM) | – | – | – | – |
| CO/C(C)=C1/NC(=O)C(C(C)O)NC(=O)c2csc(n2)-c2cc(O)c(-c3nc(C(=O)NC(CN4CCN(CCN5CCOCC5)CC4)C(N)=O)cs3)nc2-c2csc(n2)C2COC(=O)c3c4c5c(cccc5n3O)COC(=O)C(O[C@H]3C[C@](C)(O)[C@H](N(C)C)[C@H](C)O3)C(OC4)C(NC(=O)c3csc1n3)c1nc(cs1)C(=O)N2 (stereo partly drawn) [Example 53] | – | – | – | 1.0 (≈ 0.611 µM) | 0.5 (≈ 0.305 µM) | 0.5 (≈ 0.305 µM) | – |
| COC(C)=C1NC(=O)C(C(C)O)NC(=O)c2csc(n2)-c2cc(O)c(-c3nc(C(=O)NC(CNC(CO)Cc4c[nH]cn4)C(N)=O)cs3)nc2-c2csc(n2)C2COC(=O)c3c4c5c(cccc5n3O)COC(=O)C(OC3CC(C)(O)C(N(C)C)C(C)O3)C(OC4)C(NC(=O)c3csc1n3)c1nc(cs1)C(=O)N2 (stereo not drawn) [Example 66] | 16 µg/mL (≈ 10.1 µM) | 2.0 (≈ 1.27 µM) | 2.0 (≈ 1.27 µM) | – | – | – | – |
| CO/C(C)=C1/NC(=O)C(C(C)O)NC(=O)c2csc(n2)-c2cc(O)c(-c3nc(C(=O)NC(CN4CCN(c5ccccn5)CC4)C(N)=O)cs3)nc2-c2csc(n2)C2COC(=O)c3c4c5c(cccc5n3O)COC(=O)C(O[C@H]3C[C@](C)(O)[C@H](N(C)C)[C@H](C)O3)C(OC4)C(NC(=O)c3csc1n3)c1nc(cs1)C(=O)N2 (stereo partly drawn) [Example 48] | – | – | – | 0.25 (≈ 0.156 µM) | 0.125 (≈ 0.0781 µM) | 0.03 (≈ 0.0187 µM) | – |
| CNCCNCC(NC(=O)c1csc(-c2nc3c(cc2O)-c2nc(cs2)C(=O)NC(C(C)O)C(=O)N/C(=C(\C)OC)c2nc(cs2)C(=O)NC2c4nc(cs4)C(=O)NC(COC(=O)c4c5c6c(cccc6n4O)COC(=O)C(O[C@H]4C[C@](C)(O)[C@H](N(C)C)[C@H](C)O4)C2OC5)c2nc-3cs2)n1)C(N)=O (stereo partly drawn) [Example 28] | – | – | – | 0.5 (≈ 0.331 µM) | 0.25 (≈ 0.165 µM) | 0.03 (≈ 0.0198 µM) | – |
| COC(C)=C1NC(=O)C(C(C)O)NC(=O)c2csc(n2)-c2cc(O)c(-c3nc(C(=O)NC(CSCC4NC(=O)NC4=O)C(N)=O)cs3)nc2-c2csc(n2)C2COC(=O)c3c4c5c(cccc5n3O)COC(=O)C(OC3CC(C)(O)C(N(C)C)C(C)O3)C(OC4)C(NC(=O)c3csc1n3)c1nc(cs1)C(=O)N2 (stereo not drawn) [Example 45] | 128 µg/mL (≈ 80.8 µM) | 4.0 (≈ 2.53 µM) | 0.03 (≈ 0.0189 µM) | – | – | – | – |
| CO/C(C)=C1/NC(=O)C(C(C)O)NC(=O)c2csc(n2)-c2cc(O)c(-c3nc(C(=O)NC(CN(C)CCO)C(N)=O)cs3)nc2-c2csc(n2)C2COC(=O)c3[nH]c4cccc5c4c3COC(C(O[C@H]3C[C@](C)(O)[C@H](N(C)C)[C@H](C)O3)C(=O)OC5)C(NC(=O)c3csc1n3)c1nc(cs1)C(=O)N2 (stereo partly drawn) [Example 92] | 0.125 µg/mL (≈ 0.0835 µM) | 0.125 (≈ 0.0835 µM) | 0.0005 (≈ 0.000334 µM) | – | – | – | – |
| CO/C(C)=C1/NC(=O)C(C(C)O)NC(=O)c2csc(n2)-c2cc(O)c(-c3nc(C(=O)NC(CNCCNC(C)=O)C(N)=O)cs3)nc2-c2csc(n2)C2COC(=O)c3c4c5c(cccc5n3O)COC(=O)C(O[C@H]3C[C@](C)(O)[C@H](N(C)C)[C@H](C)O3)C(OC4)C(NC(=O)c3csc1n3)c1nc(cs1)C(=O)N2 (stereo partly drawn) [Example 16] | 4.0 µg/mL (≈ 2.6 µM) | 1.0 (≈ 0.649 µM) | 0.125 (≈ 0.0812 µM) | – | – | – | – |
| CO/C(C)=C1/NC(=O)C(C(C)O)NC(=O)c2csc(n2)-c2cc(O)c(-c3nc(C(=O)NC(CSC4CN5CCC4CC5)C(N)=O)cs3)nc2-c2csc(n2)C2COC(=O)c3c4c5c(cccc5n3O)COC(=O)C(O[C@H]3C[C@](C)(O)[C@H](N(C)C)[C@H](C)O3)C(OC4)C(NC(=O)c3csc1n3)c1nc(cs1)C(=O)N2 (stereo partly drawn) [Example 60] | – | – | – | 2.0 (≈ 1.27 µM) | 2.0 (≈ 1.27 µM) | 0.5 (≈ 0.316 µM) | – |
| COC(C)=C1NC(=O)C(C(C)O)NC(=O)c2csc(n2)-c2cc(O)c(-c3nc(C(=O)NC(CN4CC5CC4CN5C)C(N)=O)cs3)nc2-c2csc(n2)C2COC(=O)c3c4c5c(cccc5n3O)COC(=O)C(OC3CC(C)(O)C(N(C)C)C(C)O3)C(OC4)C(NC(=O)c3csc1n3)c1nc(cs1)C(=O)N2 (stereo not drawn) [Example 73] | – | – | – | 2.0 (≈ 1.29 µM) | 0.25 (≈ 0.161 µM) | 0.015 (≈ 0.00968 µM) | – |
| CN[C@@H]1[C@H](C)O[C@@H](OC2C(=O)OCc3cccc4c3c3c(n4O)C(=O)OCC4NC(=O)c5csc(n5)C(NC(=O)c5csc(n5)/C(=C(/C)OC)NC(=O)C(C(C)O)NC(=O)c5csc(n5)-c5cc(O)c(-c6nc(C(=O)NC(CN(C)CCO)C(N)=O)cs6)nc5-c5csc4n5)C2OC3)C[C@]1(C)O (stereo partly drawn) [Example 99] | – | – | – | 0.125 (≈ 0.0834 µM) | 0.03 (≈ 0.02 µM) | 0.015 (≈ 0.01 µM) | – |
| CO/C(C)=C1/NC(=O)C(C(C)O)NC(=O)c2csc(n2)-c2cc(O)c(-c3nc(C(=O)NC(CN4CCN(CCOCCO)CC4)C(N)=O)cs3)nc2-c2csc(n2)C2COC(=O)c3c4c5c(cccc5n3O)COC(=O)C(O[C@H]3C[C@](C)(O)[C@H](N(C)C)[C@H](C)O3)C(OC4)C(NC(=O)c3csc1n3)c1nc(cs1)C(=O)N2 (stereo partly drawn) [Example 49] | 2.0 µg/mL (≈ 1.24 µM) | 0.5 (≈ 0.31 µM) | 0.5 (≈ 0.31 µM) | – | – | – | – |
| CO/C(C)=C1/NC(=O)C(C(C)O)NC(=O)c2csc(n2)-c2cc(O)c(-c3nc(C(=O)NC(CS(=O)(=O)C4C[N+]5([O-])CCC4CC5)C(N)=O)cs3)nc2-c2csc(n2)C2COC(=O)c3c4c5c(cccc5n3O)COC(=O)C(OC3CC(C)(O)C([N+](C)(C)[O-])C(C)O3)C(OC4)C(NC(=O)c3csc1n3)c1nc(cs1)C(=O)N2 (stereo not drawn) [Example 105] | – | – | – | – | – | – | MIC ([1]; Enterococcus faecalis, A20688, 18 h, read-out: MIC (μg/mL) against Enterococcus faecalis A20688): 2 µg/mL (≈ 1.22 µM); MIC ([2]; Staphylococcus aureus, A15090, 18 h, read-out: MIC (μg/mL) against Staphylococcus aureus A15090): 1 µg/mL (≈ 0.608 µM); MIC ([3]; Streptococcus pneumoniae, A28272, 18 h, read-out: MIC (μg/mL) against Streptococcus pneumoniae A28272): 0.25 µg/mL (≈ 0.152 µM) |
| CO/C(C)=C1/NC(=O)C(C(C)O)NC(=O)c2csc(n2)-c2cc(O)c(-c3nc(C(=O)NC(CSCCC(=O)O)C(N)=O)cs3)nc2-c2csc(n2)C2COC(=O)c3c4c5c(cccc5n3O)COC(=O)C(O[C@H]3C[C@](C)(O)[C@H](N(C)C)[C@H](C)O3)C(OC4)C(NC(=O)c3csc1n3)c1nc(cs1)C(=O)N2 (stereo partly drawn) [Example 40] | (4.0) μg/mL | 1.0 (≈ 0.648 µM) | 0.03 (≈ 0.0194 µM) | – | – | – | – |
